Laboratory results published in patent US6015822A, “Sulfonamide-substituted fused 5-membered ring compounds, their use as a medicament, and pharmaceutical preparations comprising them” (Hoechst Marion Roussel Deutschland GmbH, priority 1997, dated 2000).

Biological target: T1, human IsK protein (UniProt P15382+P70057)
T1 construct: expressed in transfected cells; host or cells: Xenopus laevis oocytes injected with in vitro synthesized IsK RNA
Assay: Inhibition of IsK current in Xenopus oocytes expressing human IsK (two microelectrode voltage clamp)
Type: cell-based
Conditions: human IsK expressed in Xenopus oocytes; voltage jumps to -10 mV lasting 15 s; pH 7.5; room temperature; extrapolated using the Hill equation; read-out: IC-50 (inhibition of IsK control current)
Protocol: IsK channels from man, rat or guinea-pig were expressed in Xenopus oocytes. To do this, oocytes were first isolated from Xenopus Laevis and defolliculated. IsK -encoding RNA synthesized in vitro was then injected into these oocytes. After IsK protein expression for 2-8 days, IsK currents were measured in the oocytes using the two microelectrode voltage clamp technique. The IsK channels were in this case as a rule activated using voltage jumps to -10 mV lasting 15 s. The bath was irrigated with a solution of the following composition: NaCl 96 mM, KCl 2 mM, CaCl2 1.8 mM, MgCl2 1 mM, HEPES 5 mM (titrated with NaOH to pH 7.5). These experiments were carried out at room temperature. The following were employed for acquiring data and analysis: Geneclamp amplifier (Axon Instruments, Foster City, U.S.A.) and MacLab D/A converter and software (ADInstruments, Castle Hill, Australia). The substances according to the invention were tested by adding them to the bath solution in different concentrations. The effects of the substances were calculated as the percentage inhibition of the IsK control current, which was obtained when no substance was added to the solution. The data were then extrapolated using the Hill equation in order to determine the inhibitory concentrations IC50 for the respective substances.
In the described manner, using the human IsK protein, the following IC50 values were determined for the compounds according to the invention: […]

T1 sequence (P70057 whole entry): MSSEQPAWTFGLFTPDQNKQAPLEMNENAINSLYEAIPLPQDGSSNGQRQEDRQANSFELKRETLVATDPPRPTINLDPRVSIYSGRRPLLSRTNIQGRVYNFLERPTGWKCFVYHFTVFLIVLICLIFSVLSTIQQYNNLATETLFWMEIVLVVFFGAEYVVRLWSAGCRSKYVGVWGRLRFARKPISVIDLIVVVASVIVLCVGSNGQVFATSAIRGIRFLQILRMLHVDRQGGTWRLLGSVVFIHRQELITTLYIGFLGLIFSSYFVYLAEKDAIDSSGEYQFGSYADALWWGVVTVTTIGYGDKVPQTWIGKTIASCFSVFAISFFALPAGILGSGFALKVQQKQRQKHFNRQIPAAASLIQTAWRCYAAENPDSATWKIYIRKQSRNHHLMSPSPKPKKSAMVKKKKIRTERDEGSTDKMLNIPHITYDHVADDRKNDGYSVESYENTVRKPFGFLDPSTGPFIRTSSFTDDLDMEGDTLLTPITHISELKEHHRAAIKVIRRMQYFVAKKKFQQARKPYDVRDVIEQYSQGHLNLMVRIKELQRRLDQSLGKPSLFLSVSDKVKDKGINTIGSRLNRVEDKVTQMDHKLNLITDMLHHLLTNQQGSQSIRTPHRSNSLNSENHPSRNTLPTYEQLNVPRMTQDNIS

| Structure (SMILES) | IC50 |
| --- | --- |
| CCS(=O)(=O)N(C)C1CC(C)(C)c2ccccc21 (stereo not shown) [Example 2, 3,3-Dimethyl-1-(N-ethylsulfonyl-N-methyl)aminoindan] | ~15000 nM |
| CCCCCCN(C1CC(C)(C)c2ccccc21)S(C)(=O)=O (stereo not shown) [Example 3, 3,3-Dimethyl-1-(N-hexyl-N-methylsulfonyl)aminoindan] | < 10000 nM |
| CCCCN(C1CS(=O)(=O)c2ccccc21)S(C)(=O)=O (stereo not shown) [Example 5, N-Butyl-N-(1,1-dioxo-2,3-dihydro-1H-benzo[b]thiophen-3-yl)-methanesulfonamide] | > 10000 nM |
| CCCCN(C1CC(C)(C)c2ccc([N+](=O)[O-])cc21)S(C)(=O)=O (stereo not shown) [Example 11, 3,3-Dimethyl-6-nitro-1-(N-butyl-N-methylsulfonyl)aminoindan] | 2700 nM |
| CC1(C)CC(N(Cc2ccncc2)S(C)(=O)=O)c2cc([N+](=O)[O-])ccc21 (stereo not shown) [Example 12, 3,3-Dimethyl-6-nitro-1-[N-(4-pyridylmethyl)-N-methylsulfonyl]aminoindan] | ~2000 nM |
| CCCCOc1ccc2c(c1)C(N(C)S(C)(=O)=O)CC2(C)C (stereo not shown) [Example 13, 6-Butoxy-3,3-dimethyl-1-(N-methyl-N-methylsulfonyl)aminoindan] | 1200 nM |
| CCCCOc1ccc2c(c1)C(N(CC)S(C)(=O)=O)CC2(C)C (stereo not shown) [Example 14, 6-Butoxy-3,3-dimethyl-1-(N-ethyl-N-methylsulfonyl)aminoindan] | 440 nM |
